Measurements: US8445461B2, “Pharmaceutical composition for meniere's disease” (Setsuko Takeda, priority 2007, dated 2013)

Columns and labels:
guinea pigs = assay: Reference Example 7: erythritol or isosorbitol added jelly, conditions of feces and gastrointestinal tract; format: in vivo
Source text: As described hereinbefore, erythritol or isosorbitol as saccharides or sugar alcohols added jelly as a thickner were orally administered to 10 guinea pigs (280 to 350 g body weight) as shown in Table 41. The conditions of feces were observed.

[1] = system: animal model of experimental endolymphatic hydrops; assay: Reference Example 6: erythritol added polyvinylpyrrolidone, conditions of feces; format: in vivo, guinea pigs; conditions: erythritol 2.8 g/kg oral, alone or with PVP
Experimental: Guinea pigs (280 to 350 g of body weight, normal feces) received the surgical obliteration of the endolymphatic sac in the left ear to prepare an “animal model of experimental endolymphatic hydrops”. The surgery was performed as previously described in Non-patent Reference 8.
One month after, the animals orally received erythritol (2.8 g/kg) added polyvinylpyrrolidone (0.5 g/kg, about 7.1% by weight). […] The result is shown in FIG. 10 with comparing Group 4 in Example 2 (Animals were sacrificed 3 hours after the administration of erythritol 2.8 g/kg alone).

[2] = Volume of agent: volume, weight and particle size of formulations (Example 4); format: physicochemical; conditions: 21 g of erythritol
Experimental: When erythritol is administered to an adult (60 kg body weight), the single dose may be 10 to 80 g, preferably 20 to 60 g. When 21 g of erythritol is administered as powder, the volume may be about 53 ml. Alternatively, administered as saturated aqueous solution, it requires 65 ml of distilled water, and volume and weight thereof is 78 ml and 86 g, respectively. Carrying it to administer 3 times daily is inconvenient for a patient with Meniere's disease.
(§1) The volume of this gel formulation is 20.25 ml and the weight thereof is 36 g. By drying and grinding this gel formulation, the volume increases to 33 ml, however it is convenient for carrying. The particle size of dry milled powder is described in Table 44. If water (10 ml) is added thereto prior to use and mixed, a gel formulation (23 ml) is again obtained.
as §1, with “26.1” for “36”, “31.5 ml.” for “33 ml, however it is convenient for carrying.”, “(3” for “(10”, “(24” for “(23”

[3] = system: guinea pigs excreting normal feces; assay: Antidiarrheal effect: observation of feces after oral administration of saccharides or sugar alcohols with or without polysaccharides (Example 1); format: in vivo
Experimental: The criteria for analyzing the conditions of feces (hardness, shape and spaces of feces in the intestine) are as shown in Table 2:
The hardness and microscopic findings of feces from the group administered with distilled water were assessed as “Normal” scoring 3, the feces having normal shape and the shape could rather easily change by pushing with fingers were assessed as “Slightly soft” scoring 2, those of which the shape had already changed or it could quite easily change by pushed with fingers were assessed as “Soft” scoring 1, and those of which the shape is muddy or watery or of no shape were assessed “Muddy” scoring 0. To be precese, there are no watery feces because of the nature of diets and thus the muddy feces correspond to watery and muddy feces in human.
Since the muddy feces comprise large content of water, they induce the high abdominal pressure and the flatulence and distension. […] In the case of gas generation, it appears that noxious symptom such as the flatulence and distension are synergistically deteriorated. Therefore, we assessed not only based on the hardness of feces, but also the size, smoothness of the surface and amount of feces.
In these experiments, I observed is the diarrhea caused by saccharides or sugar alcohols and antidiarrhreal effect of saccharides. Guinea pigs orally received saccharides or sugar alcohols, for example tetrose such as erythritol, pentose such as xylitol or xylose, hexose such as isosorbitol or the like in combination with or without polysaccharides for observation of the feces up to 6 hours after the administration.
Guinea pigs (body weight 280 to 320 g, normal feces) were divided into four groups: for Group 1-a, xylitol alone (Reference Example 1), or xylitol and xanthan gum or pectin; for Group 1-b, xylose alone (Reference Example 2), xylose and xanthan gum or pectin; for Group 1-c, erythritol alone (Reference Example 3), erythritol and pectin, erythritol and xanthan gum, or erythritol, pectin and natural aluminum silicate gel or calcium carbonate; and for Group 1-d, isosorbitol alone (Reference Example 4), or isosorbitol and xanthan gum or pectin were orally administered, respectively. The compounds are dissolved in distilled water and 8 ml/kg of said solution were administered as a single dose.
The feces were observed during 6 hours after the administration. When the animals fell into the most serious condition, the hardness and shape of the feces from said animals were assessed as the effect by saccharides or sugar alcohols in the animals.

[4] = agent 2.8 g/kg oral + Jelly 0.05 g/kg, 5 animals
[5] = agent 2.8 g/kg oral + Jelly 0.1 g/kg, 5 animals
[6] = agent 2.8 g/kg oral + Jelly 0.15 g/kg, 5 animals
[7] = agent 2.8 g/kg oral, no additive dosage (agent alone)
[8] = active agent 2.8 g/kg oral, alone or with additives of the label, most serious condition within 6 hours

Compound: OC[C@@H](O)[C@@H](O)CO [Erythritol, erythritol]
- Hardness of feces: Muddy (number of animals) (guinea pigs; [4]): 5
- Hardness of feces: Normal (number of animals) (guinea pigs; [4]): 0
- Hardness of feces: Slightly soft (number of animals) (guinea pigs; [4]): 0
- Hardness of feces: Soft (number of animals) (guinea pigs; [4]): 0
- Hardness of feces: Muddy (number of animals) (guinea pigs; [5]): 5
- Hardness of feces: Normal (number of animals) (guinea pigs; [5]): 0
- Hardness of feces: Slightly soft (number of animals) (guinea pigs; [5]): 0
- Hardness of feces: Soft (number of animals) (guinea pigs; [5]): 0
- Hardness of feces: Muddy (number of animals) (guinea pigs; [6]): 5
- Hardness of feces: Normal (number of animals) (guinea pigs; [6]): 0
- Hardness of feces: Slightly soft (number of animals) (guinea pigs; [6]): 0
- Hardness of feces: Soft (number of animals) (guinea pigs; [6]): 0
- Hardness of feces: Muddy (number of animals) (guinea pigs; [7]): 5
- Hardness of feces: Normal (number of animals) (guinea pigs; [7]): 0
- Hardness of feces: Slightly soft (number of animals) (guinea pigs; [7]): 0
- Hardness of feces: Soft (number of animals) (guinea pigs; [7]): 0
- Hardness of feces 0 (Muddy): number of animals [1]: 5
- Hardness of feces 1 (Soft): number of animals [1]: 0
- Hardness of feces 2 (Slightly soft): number of animals [1]: 0
- Hardness of feces 3 (Normal): number of animals [1]: 0
- Distilled water required for saturated aqueous solution [2]: 65 mL
- Volume as powder [2]: about 53 ml
- Volume of saturated aqueous solution [2]: 78 mL
- Weight of saturated aqueous solution [2]: 86 g
- Time after administration of the peak (most serious) diarrhea ([3]; active agent 2.8 g/kg oral, alone or with additive of the label): Three hours after
- Hardness of feces: Hard (number of animals) [3, 8]: 0
- Hardness of feces: Muddy (number of animals) [3, 8]: 5
- Hardness of feces: Normal (number of animals) [3, 8]: 0
- Hardness of feces: Slightly soft (number of animals) [3, 8]: 0
- Hardness of feces: Soft (number of animals) [3, 8]: 0
- Animals in which muddy feces continued up to 6 hours after ([3]; erythritol 2.8 g/kg alone, 5 animals): 3
